The subject of series [1] is Human Breast Adenocarcinoma Cell Line MDA-MB-231. The series can be described thus: Drug cytotoxicity testing (viable cell count, trypan blue exclusion, cell growth inhibition). In kind it is cell-based. Particulars: for cell growth inhibition reached on increase of the concentration, in (B): sodium salt, range 10^-9 to 10^-7 M, dilution in normal saline (B). How it is done: (§1) MDA-MB-231 cells were propagated in MEM culture medium with 2 mM L-glutamine, 10% heat-inactivated fetal bovine serum (FBS) and antibiotics. DU 145 cells were cultured in MEM culture medium containing 2 mM L-glutamine, 1 mM sodium pyruvate, 10% FBS and antibiotics. SKOV-3 cells were cultured in McCoy's 5A culture medium, supplemented with 1,5 mM L-glutamine, 10% FBS and antibiotics. A549 cells were cultured in Ham's F-12 culture medium with 1 mM L-glutamine, 10% FBS and antibiotics. All media and supplements were purchased from Sigma-Aldrich (St.Louis, MO, USA). Cell propagation of all lines was carried out in Falcon™ 25 cm^2 cultivation flasks (Becton Dickinson Labware).
(§2) Drug cytotoxicity testing was carried out with using Falcon™ 96-well cultivation plates for adherent cells (Becton Dickinson Labware). These plates were seeded by cells either at 12 × 10^3 MDA-MB-231 cells/well, or at 12 × 10^3 DU 145 cells/well, or at 14 × 10^3 SKOV-3 cells/well, or at 10 × 10^3 A549 cells/well in a volume of 200 µL/well.
(§3) The cell cultures in cultivation plates were allowed to adhere for 24 hour of incubation. On day 1 after cell seeding, 2 µL solutions of the drugs to be tested in medium with 5% FBS was added to the cultures. In the control cultures, 2 µL of medium with 5% FBS was added as solvent control. The cells were incubated for 2 consecutive days. At the end of the incubation period adherent cells were detached by trypsinization and the number of viable cells was counted using trypan blue exclusion test and a hemocytometer. All data were derived from an average of three determinations each in six replicates. The results were expressed as mean cell number ± SE and the differences between control and test series evaluated by means of Student's t-test. The drug cytotoxicity was evaluated based on the extent of cell growth inhibition. The cell growth inhibition of the tested drugs was calculated as follows: Cell growth inhibition,% = (Control-TestSeries)/(Control) × 100 [formula]
In the case of comparative evaluation of cytotoxicity of the inventive compounds themselves and the formulation related to consecutive dilutions of their initial solutions before adding to the cultures, 2 µL solutions of the drugs to be tested in medium with 5% FBS, in normal saline and in saline with 2,3 mM CaCl2 were added to the cultures. In control cultures, 2 µL of medium with 5% FBS, normal saline and saline with 2,3 mM CaCl2 were added as solvent controls (negative controls). […] Therefore an average of negative controls was calculated. […] Therefore an average of positive controls was calculated (for each antibiotic).

The conditions of series [2]: rat, in vivo, ip.
Procedure: A single dose i.p. toxicity study in rats was carried out. […] The minimal lethal dose is thus above 100 mg/kg body weight for these compounds.
Series [3] concerns Human Prostate Carcinoma Cell Line DU 145. The series can be described thus: Drug cytotoxicity testing (viable cell count, trypan blue exclusion, cell growth inhibition). In kind it is cell-based. Particulars: alone or in formulation at molar ratio 1:6. Here is the method: as §1, §2, §3
The mark [4] stands for this setting: Homo sapiens, MDA-MB-231, compound alone 10^-7 mol/L, in B (normal saline), read-out: cell growth inhibition.
The mark [5] stands for this setting: Homo sapiens, MDA-MB-231, compound alone 10^-7 mol/L, read-out: Cell growth inhibition in A compared to that in B was increased by.
[6] abbreviates: Homo sapiens, MDA-MB-231, compound alone 10^-8 mol/L, in A (saline with […] CaCl2), read-out: cell growth inhibition.
Where [7] appears, read: Homo sapiens, MDA-MB-231, compound alone 10^-8 mol/L, in B (normal saline), read-out: cell growth inhibition.
Where [8] appears, read: Homo sapiens, MDA-MB-231, compound alone 10^-8 mol/L, read-out: Cell growth inhibition in A compared to that in B was increased by.
[9] abbreviates: Homo sapiens, MDA-MB-231, compound alone 10^-9 mol/L, in A (saline with […] CaCl2), read-out: cell growth inhibition.
[10] abbreviates: Homo sapiens, MDA-MB-231, compound alone 10^-9 mol/L, in B (normal saline), read-out: cell growth inhibition.
Setting [11] is: Homo sapiens, MDA-MB-231, compound alone 10^-9 mol/L, read-out: Cell growth inhibition in A compared to that in B was increased by.
Setting [12] is: compound alone 10^-7 mol/L, in B (normal saline).
Setting [13] is: compound alone 10^-8 mol/L, in B (normal saline).
Setting [14] is: compound alone 10^-9 mol/L, in B (normal saline).
The mark [15] stands for this setting: Homo sapiens, MDA-MB-231, 48 h, compound alone, final concentration 10^-8 mol/L, working solutions in MEM with 5% FBS, two days, read-out: cell growth inhibition.
The mark [16] stands for this setting: Homo sapiens, MDA-MB-231, 48 h, compound alone, final concentration 10^-9 mol/L, working solutions in MEM with 5% FBS, two days, read-out: cell growth inhibition.
[17] abbreviates: compound alone, final concentration 10^-7 mol/L, working solutions in MEM with 5% FBS, two days.
The mark [18] stands for this setting: compound alone, final concentration 10^-8 mol/L, working solutions in MEM with 5% FBS, two days.
Setting [19] is: compound alone, final concentration 10^-9 mol/L, working solutions in MEM with 5% FBS, two days.
Setting [20] is: Homo sapiens, MDA-MB-231, 48 h, compound alone, final concentration 10^-7 mol/L, working solutions in MEM with 5% FBS, two days, read-out: cell growth inhibition.
[21] abbreviates: cytotoxic drug 10^-8 mol/L, working solutions in medium with 5% FBS.

Each structure is given as a SMILES string. Like-named read-outs stand apart in the source and are kept apart here. Marks after values point to notes of the source that are not given here.

Usually inhibition stands for the relative decrease from the control value, in per cent. Consider `CC1=C(/C=C/C(C)=C/C=C/C(C)=C\C(=O)N[C@@H](CS(=O)(=O)O)C(=O)O)C(C)(C)CCC1` [compound II-1, N-(13-cis-Retinoyl)-L-cysteic acid], for which the inhibition at 0.1 µM came to 42.7% in series [1] (Homo sapiens, MDA-MB-231, compound alone 10^-7 mol/L, in A (saline with […] CaCl2), read-out: cell growth inhibition); 32.2% in series [1] (setting [4]); 15.5% in series [1] (setting [5]). The values for the inhibition at 0.01 µM in series [1] (setting [6]), in series [1] (setting [7]) and in series [1] (setting [8]) were 41.3%, 30.6% and 15.4%, respectively. For the same molecule, the inhibition at 0.001 µM in series [1] (setting [9]) was 37.4%; in series [1] (setting [10]) it was 25.5%; in series [1] (setting [11]), 16%. In addition, the “number of viable cells” value in series [1] (setting [12]) is listed as 38.6 ± 1.25 × 10^3; in series [1] (setting [13]), 39.5 ± 1.46 × 10^3; in series [1] (setting [14]) it was 42.4 ± 1.63 × 10^3. The “cell growth inhibition reached on increase of the concentration, in (B)” value in series [1] is reported as about 32%.
Regarding `CNC(=O)[C@H](CS(=O)(=O)O)NC(=O)/C=C(C)/C=C/C=C(C)/C=C/C1=C(C)CCCC1(C)C` [compound I-1g, N-(all-trans-retinoyl)-L-cysteic acid methylamide], the inhibition at 0.01 µM in series [1] (setting [15]) came to 35.9%; in series [1] (setting [6]), 36.7%; in series [1] (setting [7]), 14.2%; in series [1] (setting [8]), 26.3%. The inhibition at 0.001 µM in series [1] (setting [16]) worked out at 27.8%; in series [1] (setting [9]) it was 28.5%; in series [1] (setting [10]) it was 4.2%; in series [1] (setting [11]), 25.4%. Further, the inhibition at 0.1 µM in series [1] (setting [4]) worked out at 22.8%; in series [1] (setting [5]) it was 26.5%. In addition, the “number of viable cells” value in series [1] (setting [12]) is 43.1 ± 2.03 × 10^3; in series [1] (setting [13]), 47.9 ± 2.86 × 10^3; in series [1] (setting [14]), 53.5 ± 3.21 × 10^3; in series [1] (setting [17]), 32.1 ± 1.72 × 10^3; in series [1] (setting [18]), 36.2 ± 1.95 × 10^3; in series [1] (setting [19]) it was 40.8 ± 2.14 × 10^3. In addition, the “cell growth inhibition reached when increasing the concentration” value in series [1] (compound alone (sodium salt), concentration range 10^-9 to 10^-7 M) was about 43%. Further, the “cell growth inhibition reached on increase of the concentration, in (B)” value in series [1] was about 23%.
Consider `CCCOC(=O)[C@H](CS(=O)(=O)O)NC(=O)/C=C(C)/C=C/C=C(C)/C=C/C1=C(C)CCCC1(C)C` [compound I-1d, N-(all-trans-retinoyl)-L-cysteic acid propyl ester], for which the inhibition at 0.1 µM in series [1] (setting [20]) was 54.8%. In addition, in series [1] (setting [15]), the inhibition at 0.01 µM is 50.7%. Also, the inhibition at 0.001 µM in series [1] (setting [16]) was 45.2%. For the same molecule, the “number of viable cells” value in series [1] (setting [17]) is 24.1 ± 1.46 × 10^3; in series [1] (setting [18]), 26.3 ± 1.67 × 10^3; in series [1] (setting [19]) it was 29.2 ± 1.89 × 10^3.
For the molecule `CC1=C(/C=C/C(C)=C/C=C/C(C)=C\C(=O)N[C@@H](CCS(=O)(=O)O)C(=O)O)C(C)(C)CCC1` [compound II-3, N-(13-cis-Retinoyl)-L-homocysteic acid], the minimal lethal dose entry in series [2] is on record as “above 100 mg/kg body weight”.
Consider `O=C1c2c(O)ccc(O)c2C(=O)c2c(NCCNCCO)ccc(NCCNCCO)c21` [Mitoxantrone, mitoxantrone], for which the IC50 in series [1] (Homo sapiens, MDA-MB-231, as concentration of cytotoxic drug, alone or in formulation at molar ratio 1:6, medium with 5% FBS, calculated from three concentrations, read-out: IC50 mol/L (a)) was 5 nM; in series [3] (Homo sapiens, DU-145, as concentration of cytotoxic drug, medium with 5% FBS, calculated from three concentrations, read-out: IC50 mol/L (a)) it was 32 nM. Moreover, the inhibition at 0.1 µM in series [1] (Homo sapiens, MDA-MB-231, cytotoxic drug 10^-7 mol/L (100 nM), alone or in formulation at molar ratio 1:6, working solutions in medium with 5% FBS, read-out: Cell Growth Inhibition, %) worked out at 58.8%; in series [3] (Homo sapiens, DU-145, cytotoxic drug 10^-7 mol/L (100 nM), working solutions in medium with 5% FBS) it was 60.2%. In addition, the inhibition at 0.01 µM was determined as 52.6% in series [1] (Homo sapiens, MDA-MB-231, cytotoxic drug 10^-8 mol/L, alone or in formulation at molar ratio 1:6, working solutions in medium with 5% FBS, read-out: Cell Growth Inhibition, %) and 39.1% in series [3] (Homo sapiens, DU-145, cytotoxic drug 10^-8 mol/L, working solutions in medium with 5% FBS). Further, the inhibition at 0.001 µM in series [1] (Homo sapiens, MDA-MB-231, cytotoxic drug 10^-9 mol/L, alone or in formulation at molar ratio 1:6, working solutions in medium with 5% FBS, read-out: Cell Growth Inhibition, %) came out at 43.6%; in series [3] (Homo sapiens, DU-145, cytotoxic drug 10^-9 mol/L, working solutions in medium with 5% FBS), 19.1%. The “Tumor Cell Number, × 10^3” value in series [1] (cytotoxic drug 10^-7 mol/L (100 nM), alone or in formulation at molar ratio 1:6, working solutions in medium with 5% FBS) was 22.5 ± 1.63 × 10^3; in series [1] (cytotoxic drug 10^-7 mol/L (100 nM), alone or in formulation at molar ratio 1:6, working solutions in medium with 5% FBS, listed as mitoxantrone) it was 22.9 ± 1.49 × 10^3; in series [1] (cytotoxic drug 10^-8 mol/L, alone or in formulation at molar ratio 1:6, working solutions in medium with 5% FBS), 27.4 ± 1.90 × 10^3; in series [1] (cytotoxic drug 10^-9 mol/L, alone or in formulation at molar ratio 1:6, working solutions in medium with 5% FBS), 32.6 ± 1.99 × 10^3; in series [3] (cytotoxic drug 10^-7 mol/L (100 nM), working solutions in medium with 5% FBS), 23.1 ± 1.34 × 10^3; in series [3] (cytotoxic drug 10^-7 mol/L (100 nM), working solutions in medium with 5% FBS, listed as mitoxantrone) it was 19.2 ± 1.16 × 10^3. In addition, the “Tumor Cell Number, × 10^3” value was 35.0 ± 1.70 × 10^3 in series [3] (setting [21]) and 46.5 ± 2.32 × 10^3 in series [3] (cytotoxic drug 10^-9 mol/L, working solutions in medium with 5% FBS). Moreover, the “Cell Growth Inhibition, %” value in series [1] (cytotoxic drug 10^-7 mol/L (100 nM), alone or in formulation at molar ratio 1:6, working solutions in medium with 5% FBS, 0.1 µM) is listed as 61.1* %; in series [3] (cytotoxic drug 10^-7 mol/L (100 nM), working solutions in medium with 5% FBS, 0.1 µM) it was 59.8* %; in series [3] (setting [21]) it was 39.1 * %.
On to `CCCCOC(=O)[C@H](CS(=O)(=O)O)NC(=O)/C=C(C)/C=C/C=C(C)/C=C/C1=C(C)CCCC1(C)C` [compound I-1e, N-(all-trans-retinoyl)-L-cysteic acid butyl ester], for which, in series [1] (setting [20]), the inhibition at 0.1 µM was determined as 53.5%. In series [1] (setting [15]), the inhibition at 0.01 µM worked out at 49.2%. In addition, the inhibition at 0.001 µM in series [1] (setting [16]) is 44.7%. Besides, the entries for the “number of viable cells” value in series [1] (setting [17]), in series [1] (setting [18]) and in series [1] (setting [19]) were 24.8 ± 1.34 × 10^3, 27.1 ± 1.75 × 10^3 and 29.5 ± 2.18 × 10^3, respectively.
